In ChEMBL document CHEMBL5032539, “Indole-Containing Amidinohydrazones as Nonpeptide, Dual RXFP3/4 Agonists: Synthesis, Structure-Activity Relationship, and Molecular Modeling Studies” (J Med Chem, 2021):
≈ marks a conversion by molar mass, not a printed value.

biological target: T1, Relaxin-3 receptor 1 (Homo sapiens, UniProt Q9NSD7); assay: not given; details: not given
T1 sequence (Q9NSD7 whole entry): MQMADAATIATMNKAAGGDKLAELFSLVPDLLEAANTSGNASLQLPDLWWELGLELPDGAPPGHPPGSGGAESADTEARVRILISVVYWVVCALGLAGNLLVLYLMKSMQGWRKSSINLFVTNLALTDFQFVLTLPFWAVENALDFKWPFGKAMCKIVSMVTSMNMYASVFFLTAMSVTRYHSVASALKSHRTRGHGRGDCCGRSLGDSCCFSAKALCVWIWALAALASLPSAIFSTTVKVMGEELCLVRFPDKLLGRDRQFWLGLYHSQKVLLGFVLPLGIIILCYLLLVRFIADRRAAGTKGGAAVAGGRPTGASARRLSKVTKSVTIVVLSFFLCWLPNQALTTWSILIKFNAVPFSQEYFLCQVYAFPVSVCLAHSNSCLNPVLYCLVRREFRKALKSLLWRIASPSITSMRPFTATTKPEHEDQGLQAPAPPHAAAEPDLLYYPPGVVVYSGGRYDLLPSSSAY

Row | Compound | EC50 [nM]
1 | COc1cc(C)c2[nH]cc(/C=N/NC(=N)NCCc3ccc(Cl)cc3)c2c1 | 74.7
2 | COC(=O)c1ccc(CCNC(=N)N/N=C/c2c[nH]c3c(C)cc(OC)cc23)cc1 | 7.7
3 | COc1cc(C)c2[nH]cc(/C=N/NC(=N)NCCc3ccc(I)cc3)c2c1 | 67
4 | COc1ccc(CCNC(=N)N/N=C/c2c[nH]c3c(C)cc(OC)cc23)cc1 | 56.1
5 | N#Cc1ccc2[nH]cc(/C=N/NC(=N)NCCc3ccc(Cl)cc3)c2c1 | 253
6 | Cc1ccc2c(/C=N/NC(=N)NCCc3ccc(Cl)cc3)c[nH]c2c1 | 7440
7 | COc1cc(C)c2[nH]cc(/C=N/NC(=N)Nc3ccc(Cl)cc3)c2c1 | 3120
8 | Cc1cc(C#N)cc2c(/C=N/NC(=N)NCCc3ccc(Cl)cc3)c[nH]c12 | 82.3
9 | COc1cc(C)c2[nH]cc(/C=N/NC(=N)NCCc3ccc([N+](=O)[O-])cc3)c2c1 | 13.6
10 | COc1ccc2c(/C=N/NC(=N)NCCc3ccc(Cl)cc3)c[nH]c2c1 | 4750
11 | CCc1cc(OC)cc2c(/C=N/NC(=N)NCCc3ccc(Cl)cc3)c[nH]c12 | 19.5
12 | COc1cc(C)c2[nH]cc(/C=N/NC(=N)NCCc3ccc(N(C)C)cc3)c2c1 | 98.4
13 | Cc1cccc2c(/C=N/NC(=N)NCCc3ccc(Cl)cc3)c[nH]c12 | 647
14 | COc1cc(C)c2[nH]cc(/C=N/NC(=N)NCCCc3ccc(Cl)cc3)c2c1 | 1660
15 | CCc1cc(OC)cc2c(/C=N/NC(=N)NCCc3ccc(F)cc3)c[nH]c12 | 5.6
16 | N=C(NCCc1ccc(Cl)cc1)N/N=C/c1c[nH]c2cc(F)ccc12 | 3470
17 | CCc1cc(OC)cc2c(/C=N/NC(=N)NCCc3cccnc3)c[nH]c12 | 2.3
18 | COc1cc(C)c2[nH]cc(/C=N/NC(=N)NCCc3ccc(Br)cc3)c2c1 | 69.9
19 | N=C(NCCc1ccc(Cl)cc1)N/N=C/c1c[nH]c2cccc(F)c12 | 3210
20 | N=C(NCCc1ccc(Cl)cc1)N/N=C/c1c[nH]c2ccccc12 | 6940
21 | COc1ccc2[nH]cc(/C(C)=N/NC(=N)NCCc3ccc(Cl)cc3)c2c1 | 7690
22 | COc1cc(C)c2[nH]cc(/C=N/NC(=N)NCCc3ccccc3)c2c1 | 224
23 | COc1cc(C)c2[nH]cc(/C=N/NC(=N)NCCc3ccccn3)c2c1 | 855
24 | N=C(NCCc1ccc(Cl)cc1)N/N=C/c1c[nH]c2ccc(Cl)cc12 | 2820
25 | N=C(NCCc1ccc(Cl)cc1)N/N=C/c1c[nH]c2c(F)cccc12 | 2790
26 | N=C(NCCc1ccc(Cl)cc1)N/N=C/c1c[nH]c2ccc(F)cc12 | 1360
27 | COc1cc(C)c2[nH]cc(/C=N/NC(=N)NCc3ccc(Cl)cc3)c2c1 | 3950
28 | N=C(NCCc1ccc(Cl)cc1)N/N=C/c1c[nH]c2ccc([N+](=O)[O-])cc12 | 317
29 | COc1cc(C)c2[nH]cc(/C=N/NC(=N)NCCc3ccc(C#N)cc3)c2c1 | 13.2

biological target: Relaxin-3 receptor 2 (Homo sapiens, UniProt Q8TDU9); assay: not given; details: not given
Sequence (Q8TDU9 whole entry): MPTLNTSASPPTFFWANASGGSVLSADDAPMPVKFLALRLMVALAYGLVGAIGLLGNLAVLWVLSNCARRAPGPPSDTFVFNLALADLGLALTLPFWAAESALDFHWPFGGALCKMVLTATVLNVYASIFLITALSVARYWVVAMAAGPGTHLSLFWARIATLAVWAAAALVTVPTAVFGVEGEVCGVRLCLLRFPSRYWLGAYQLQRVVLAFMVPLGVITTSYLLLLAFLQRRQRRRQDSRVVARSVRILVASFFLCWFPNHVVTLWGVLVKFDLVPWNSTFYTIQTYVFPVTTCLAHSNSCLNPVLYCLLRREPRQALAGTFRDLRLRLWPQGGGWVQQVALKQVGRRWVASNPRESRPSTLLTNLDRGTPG

Row | Compound | EC50 [nM]
30 | CCc1cc(O)cc2c(/C=N/NC(=N)NCCc3ccc(Cl)cc3)c[nH]c12 | 0.8
31 | COC(=O)c1ccc(CCNC(=N)N/N=C/c2c[nH]c3c(C)cc(OC)cc23)cc1 | 3.4
32 | CCc1cc(OC)cc2c(/C=N/NC(=N)NCCc3ccc(C#N)cc3)c[nH]c12 | 1.8
33 | CCc1cc(OC)cc2c(/C=N/NC(=N)NCCc3ccc(F)cc3)c[nH]c12 | 4
34 | CCc1cc(OC)cc2c(/C=N/NC(=N)NCCc3cccnc3)c[nH]c12 | 1.1
35 | COC(=O)c1ccc(CCNC(=N)N/N=C/c2c[nH]c3c(C)cc(C#N)cc23)cc1 | 2.7
36 | CCc1cc(C#N)cc2c(/C=N/NC(=N)NCCc3cccnc3)c[nH]c12 | 0.9

system: not listed separately; assay: physchem; details: buffer, pH 7.4

Row | Compound | solubility kinetic at 2 h [µM]
37 | CCc1cc(OC)cc2c(/C=N/NC(=N)NCCc3ccc(F)cc3)c[nH]c12 | 19.5 (≈ 7.44 µg/mL)
38 | CCc1cc(OC)cc2c(/C=N/NC(=N)NCCc3cccnc3)c[nH]c12 | 74.6 (≈ 27.2 µg/mL)

biological target: T1, Relaxin-3 receptor 1; assay: biochemical; details: not given

Row | Compound | Ki [nM]
39 | COc1cc(C)c2[nH]cc(/C=N/NC(=N)NCCc3ccc(C#N)cc3)c2c1 | 268
